Reference: patent US5866596A, “3,4-diaryloxazolone derivatives, their methods of preparation and their uses in therapeutics” (Laboratories UPSA, priority 1996, dated 1999)

Test system: oedema with carrageenan
Experiment: Anti-inflammatory activity: test of oedema with carrageenan
Type: in vivo
Conditions: Rattus norvegicus, 30 mg/kg oral, rats, after 3 hours, n=6 per dose, read-out: Anti-inflammatory activity, % inhibition (volume of the oedema)
Procedure: (§1) The anti-inflammatory activity of the compounds of the Examples has been evaluated according to the method of oedema with carrageenan and the analgesic activity has been evaluated according to the method of arthritis with kaolin.
The anti-inflammatory activity is evaluated in rats by the test of oedema with carrageenan. The product is administered orally at a rate of 2.5 ml/100 g (n=6 animals per dose) 2 hours 30 minutes after a water overload taken orally (2.5 ml/100 g). One hour after administration of the product, the oedema is induced by plantar subcutaneous injection of aqueous 2% carrageenan solution. The percentage inhibition of the volume of the oedema is calculated after 3 hours by measuring the volume of the paw with the aid of a mercury plethysmometer.

SMILES | inhibition in vivo at 30 mg/kg [%]
CS(=O)(=O)c1ccc(-c2coc(=O)n2-c2ccc(F)cc2)cc1 [Example 4, 3-(4-fluorophenyl)-4-(4-methanesulfonylphenyl)-3H-oxazol-2-one] | 53
CS(=O)(=O)c1ccc(-c2coc(=O)n2-c2ccccc2)cc1 [Example 16, 3-phenyl-4-(4-methanesulfonylphenyl)-3H-oxazol-2-one] | 45
CS(=O)(=O)c1ccc(-c2coc(=O)n2-c2ccc(Cl)cc2)cc1 [Example 17, 3-(4-chlorophenyl)-4-(4-methanesulfonylphenyl)-3H-oxazol-2-one] | 32
Cc1cccc(-n2c(-c3ccc(S(C)(=O)=O)cc3)coc2=O)c1 [Example 18, 3-(3-methylphenyl)-4-(4-methanesulfonylphenyl)-3H-oxazol-2-one] | 18

Test system: arthritis with kaolin (pain response)
Experiment: Analgesic activity: test of arthritis with kaolin
Type: in vivo
Conditions: 30 mg/kg oral, rats, 5 hours 30 minutes after administration, n=10 per dose
Procedure: as §1
The analgesic activity is evaluated in rats by the test of arthritis with kaolin. Thirty minutes after intra-articular administration of an aqueous 10% suspension of kaolin, the product is administered orally at a rate of 1 ml/100 g (n=10 animals per dose). The percentage inhibition of the animal's pain response (by rating the way it walks) is calculated 5 hours 30 minutes after administration of the product.

SMILES | Analgesic activity, % inhibition (pain response) [%]
CS(=O)(=O)c1ccc(-c2coc(=O)n2-c2ccc(F)cc2)cc1 [Example 4, 3-(4-fluorophenyl)-4-(4-methanesulfonylphenyl)-3H-oxazol-2-one] | 55
CS(=O)(=O)c1ccc(-c2coc(=O)n2-c2ccccc2)cc1 [Example 16, 3-phenyl-4-(4-methanesulfonylphenyl)-3H-oxazol-2-one] | 60
CS(=O)(=O)c1ccc(-c2coc(=O)n2-c2ccc(Cl)cc2)cc1 [Example 17, 3-(4-chlorophenyl)-4-(4-methanesulfonylphenyl)-3H-oxazol-2-one] | 42
Cc1cccc(-n2c(-c3ccc(S(C)(=O)=O)cc3)coc2=O)c1 [Example 18, 3-(3-methylphenyl)-4-(4-methanesulfonylphenyl)-3H-oxazol-2-one] | 0

Target: T1, COX-2 (purified enzyme from ewe placenta) (Ovis aries, UniProt P79208)
T1 construct: purified enzyme from ewe placenta; from tissue; host or cells: ewe placenta
T1 sequence (P79208 17-603): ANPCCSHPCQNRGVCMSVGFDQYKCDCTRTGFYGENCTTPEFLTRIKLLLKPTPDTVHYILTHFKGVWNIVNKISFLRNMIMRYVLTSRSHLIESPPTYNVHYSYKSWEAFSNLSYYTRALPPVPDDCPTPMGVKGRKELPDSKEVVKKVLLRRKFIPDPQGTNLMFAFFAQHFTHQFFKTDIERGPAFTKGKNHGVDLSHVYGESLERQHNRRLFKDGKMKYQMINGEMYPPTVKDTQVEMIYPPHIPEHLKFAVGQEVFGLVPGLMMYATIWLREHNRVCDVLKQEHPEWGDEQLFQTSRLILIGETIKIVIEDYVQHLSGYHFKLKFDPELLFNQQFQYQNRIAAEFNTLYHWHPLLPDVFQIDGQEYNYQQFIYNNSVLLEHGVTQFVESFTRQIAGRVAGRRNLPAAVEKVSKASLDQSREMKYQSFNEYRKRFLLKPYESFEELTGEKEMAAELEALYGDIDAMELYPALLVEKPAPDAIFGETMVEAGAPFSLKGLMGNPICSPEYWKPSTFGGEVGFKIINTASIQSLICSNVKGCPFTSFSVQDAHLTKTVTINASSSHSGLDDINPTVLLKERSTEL
Experiment: Inhibition of COX-2 enzymatic activity (PGE2 by EIA)
Type: biochemical
Conditions: 10^-5 M; arachidonic acid 4 μM; mean of 4 determinations
Procedure: (§2) Arachidonic acid (6 μM for COX-1, 4 μM for COX-2) is added to the reaction medium and incubation is carried out for 5 minutes at 25° C. When incubation has ended, the enzymatic reaction is stopped by the addition of 1N HCl and the PGE2 produced is determined by EIA. The results are expressed as the percentage inhibition of the COX-1 and COX-2 enzymatic activities and correspond to mean (±) standard deviations from the average of 4 determinations.

inhibition at 10 µM [%] | SMILES
78 | CS(=O)(=O)c1ccc(-c2coc(=O)n2-c2ccccc2)cc1 [Example 16, 3-phenyl-4-(4-methanesulfonylphenyl)-3H-oxazol-2-one]
85 | CS(=O)(=O)c1ccc(-c2coc(=O)n2-c2ccc(Cl)cc2)cc1 [Example 17, 3-(4-chlorophenyl)-4-(4-methanesulfonylphenyl)-3H-oxazol-2-one]
92 | Cc1cccc(-n2c(-c3ccc(S(C)(=O)=O)cc3)coc2=O)c1 [Example 18, 3-(3-methylphenyl)-4-(4-methanesulfonylphenyl)-3H-oxazol-2-one]

SMILES | inhibition at 10 µM [%]
CS(=O)(=O)c1ccc(-c2coc(=O)n2-c2ccc(F)cc2)cc1 [Example 4, 3-(4-fluorophenyl)-4-(4-methanesulfonylphenyl)-3H-oxazol-2-one] | 82.7

Same assay, conditions: 10^-7 M; arachidonic acid 4 μM; mean of 4 determinations

inhibition at 0.1 µM [%] | SMILES
16 | CS(=O)(=O)c1ccc(-c2coc(=O)n2-c2ccccc2)cc1 [Example 16, 3-phenyl-4-(4-methanesulfonylphenyl)-3H-oxazol-2-one]
11 | CS(=O)(=O)c1ccc(-c2coc(=O)n2-c2ccc(Cl)cc2)cc1 [Example 17, 3-(4-chlorophenyl)-4-(4-methanesulfonylphenyl)-3H-oxazol-2-one]
14 | Cc1cccc(-n2c(-c3ccc(S(C)(=O)=O)cc3)coc2=O)c1 [Example 18, 3-(3-methylphenyl)-4-(4-methanesulfonylphenyl)-3H-oxazol-2-one]

SMILES | inhibition at 0.1 µM [%]
CS(=O)(=O)c1ccc(-c2coc(=O)n2-c2ccc(F)cc2)cc1 [Example 4, 3-(4-fluorophenyl)-4-(4-methanesulfonylphenyl)-3H-oxazol-2-one] | 12

Target: T2, COX-1 (purified enzyme from ram seminal vesicles) (Ovis aries, UniProt P05979)
T2 construct: purified enzyme from ram seminal vesicles; from tissue; host or cells: ram seminal vesicles
T2 sequence (P05979 25-600): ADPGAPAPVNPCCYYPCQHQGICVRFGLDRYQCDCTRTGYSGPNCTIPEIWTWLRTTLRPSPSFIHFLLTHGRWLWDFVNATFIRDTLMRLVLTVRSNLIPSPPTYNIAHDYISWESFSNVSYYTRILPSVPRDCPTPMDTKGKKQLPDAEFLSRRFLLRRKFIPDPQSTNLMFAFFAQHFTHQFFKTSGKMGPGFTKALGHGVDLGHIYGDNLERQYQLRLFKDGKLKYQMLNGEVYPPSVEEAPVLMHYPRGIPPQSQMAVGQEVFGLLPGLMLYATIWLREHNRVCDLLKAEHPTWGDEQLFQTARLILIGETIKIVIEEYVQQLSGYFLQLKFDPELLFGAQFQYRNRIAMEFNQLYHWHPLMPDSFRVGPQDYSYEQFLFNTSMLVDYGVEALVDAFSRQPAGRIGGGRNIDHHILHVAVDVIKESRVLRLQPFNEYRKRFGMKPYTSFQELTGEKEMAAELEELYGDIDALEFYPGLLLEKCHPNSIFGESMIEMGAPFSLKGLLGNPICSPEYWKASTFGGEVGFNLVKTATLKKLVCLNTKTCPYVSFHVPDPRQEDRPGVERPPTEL
Experiment: Inhibition of COX-1 enzymatic activity (PGE2 by EIA)
Type: biochemical
Conditions: 10^-5 M; arachidonic acid 6 μM; mean of 4 determinations
Procedure: as §2

inhibition at 10 µM [%] | SMILES
0 | CS(=O)(=O)c1ccc(-c2coc(=O)n2-c2ccccc2)cc1 [Example 16, 3-phenyl-4-(4-methanesulfonylphenyl)-3H-oxazol-2-one]
0 | CS(=O)(=O)c1ccc(-c2coc(=O)n2-c2ccc(Cl)cc2)cc1 [Example 17, 3-(4-chlorophenyl)-4-(4-methanesulfonylphenyl)-3H-oxazol-2-one]
0 | Cc1cccc(-n2c(-c3ccc(S(C)(=O)=O)cc3)coc2=O)c1 [Example 18, 3-(3-methylphenyl)-4-(4-methanesulfonylphenyl)-3H-oxazol-2-one]

SMILES | inhibition at 10 µM [%]
CS(=O)(=O)c1ccc(-c2coc(=O)n2-c2ccc(F)cc2)cc1 [Example 4, 3-(4-fluorophenyl)-4-(4-methanesulfonylphenyl)-3H-oxazol-2-one] | 0

Same assay, conditions: 10^-7 M; arachidonic acid 6 μM; mean of 4 determinations

inhibition at 0.1 µM [%] | SMILES
0 | CS(=O)(=O)c1ccc(-c2coc(=O)n2-c2ccccc2)cc1 [Example 16, 3-phenyl-4-(4-methanesulfonylphenyl)-3H-oxazol-2-one]
0 | CS(=O)(=O)c1ccc(-c2coc(=O)n2-c2ccc(Cl)cc2)cc1 [Example 17, 3-(4-chlorophenyl)-4-(4-methanesulfonylphenyl)-3H-oxazol-2-one]
0 | Cc1cccc(-n2c(-c3ccc(S(C)(=O)=O)cc3)coc2=O)c1 [Example 18, 3-(3-methylphenyl)-4-(4-methanesulfonylphenyl)-3H-oxazol-2-one]

SMILES | inhibition at 0.1 µM [%]
CS(=O)(=O)c1ccc(-c2coc(=O)n2-c2ccc(F)cc2)cc1 [Example 4, 3-(4-fluorophenyl)-4-(4-methanesulfonylphenyl)-3H-oxazol-2-one] | 0

Test system: not listed separately
Experiment: Gastric tolerance (ulcerogenic dose)
Parameters: species or system Charles River rats strain CD
Conditions: rat, in vivo, po
Procedure: The gastic tolerance study is carried out in Charles River rats strain CD weighing 110 to 150 g. The animals are placed on a water diet 24 hours before administration of the product or the vehicle alone, via the oral route (1 ml/100 g) (n=6 animals per dose). Six hours after administration,the animals are sacrificed and the stomachs are removed and opened along the greater curvature. The number of haemorrhagic spots and lines per stomach identified macroscopically permits establishing an ulceration index (0: no lesion, 1: 1 to 2 lesions, 2: 3 to 4 lesions, 3: 5 to 8 lesions, 4: 9 to 16 lesions, 5: more than 17 lesions) and estimating the 50% ulcerogenic dose (UD50 =dose expressed in mg/kg inducing 4 to 5 lesions).

SMILES | TD50 at 6 h [mg/kg]
CS(=O)(=O)c1ccc(-c2coc(=O)n2-c2ccc(F)cc2)cc1 [Example 4, 3-(4-fluorophenyl)-4-(4-methanesulfonylphenyl)-3H-oxazol-2-one] | > 300
